Data from patent US7494784B2, “Method of treating cell-migration conditions or diseases” (Wisconsin Alumni Research Foundation, priority 2003, dated 2009).

Legend:
Src family kinases = test: Tyrosine phosphorylation of PIPKIγ661 in cells with Src-specific inhibitor; assay type: cell-based
Text: In the FAK signaling pathway, Src family tyrosine kinases bind to and are activated by FAK, playing a fundamental role in focal adhesion organization (Parsons, et al. (2000) Oncogene 19:5606-5613; Cobb, et al (1994) Mol. Cell. Biol. 14:147-155; Schaller, et al. (1994) Mol. Cell. Biol. 14:1680-1688; Schaller, et al. (999) Mol. Cell. Biol. 10:3489-3505). To determine if Src family kinases phosphorylate PIPKIγ661, Src-specific inhibitor PP2 was employed. […] PIPKIγTyr^649->Phe is efficiently phosphorylated by c-Src.
HEK 293T cells and NRK cells were cultured in Dulbecco's modified Eagle's medium (DMEM) (Mediatech, Inc., Herndon, Va.) supplemented with 10% fetal bovine serum (INVITROGEN™, Carlsbad, Calif.) and antibiotics. NRK cells were transfected using FUGENE™ 6 (Roche, Indianapolis, Ind.) according to manufacturer's instructions for 24 hours. […]
Immunoprecipitation was performed using standard methods (Zhang, et al. (1997) J. Biol. Chem. 272:17756-17761). […] The immunocomplexes were washed with Buffer A, separated by SDS-polyacrylamide gel electrophoresis (SDS-PAGE), and analyzed as indicated. […]

GST-talin head = biological target: T1, GST-talin head (Homo sapiens, UniProt Q9Y490); test: GST pull-down competition: displacement of His-β1-integrin tail from GST-talin head; assay type: binding; settings: for binding affinity for talin compared with unphosphorylated peptide PN: binding assay between talin and integrin (FIG. 2); for binding affinity to talin of phosphorylated β1-integrin peptides: competing integrin tail binding from talin
T1 construct: Human talin1 head region (1-435) was cloned from HEK293T cells by PCR and subcloned into pET42; made in house; host or cells: E. coli BL21(DE3)
T1 sequence (Q9Y490 1-435): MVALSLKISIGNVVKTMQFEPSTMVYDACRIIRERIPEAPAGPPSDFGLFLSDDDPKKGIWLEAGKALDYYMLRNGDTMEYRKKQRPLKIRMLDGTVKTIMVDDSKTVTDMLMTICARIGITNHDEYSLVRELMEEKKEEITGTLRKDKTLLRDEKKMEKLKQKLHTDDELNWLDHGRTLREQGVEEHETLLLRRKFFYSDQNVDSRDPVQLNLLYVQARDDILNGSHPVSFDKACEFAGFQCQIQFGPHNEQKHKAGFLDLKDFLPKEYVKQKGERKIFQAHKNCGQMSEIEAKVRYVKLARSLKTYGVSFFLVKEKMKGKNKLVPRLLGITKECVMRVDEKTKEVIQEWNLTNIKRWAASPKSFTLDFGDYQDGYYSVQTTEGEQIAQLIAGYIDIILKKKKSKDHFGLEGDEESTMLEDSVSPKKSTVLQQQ
Protocol: Talin interactions were assessed by GST pull-down using recombinant GST-talin head, His-PIPKIγ635 C-terminus, His-PIPKIγ661 wild-type or Tyr to Phe mutant C-terminus, and His-β1-integrin tail. […] Peptides containing the PIPKIγ661/talin binding sequence (Di Paolo, et al. (2002) supra) were designed to include phosphorylated Tyr^644, phosphorylated Tyr^649, and dual phosphorylated Tyr^644 and Tyr^649.
In a screening assay to identify an agent which modulates the activity of PIPKIγ661 as defined by the binding interaction between PIPKIγ661 and talin, the step of detecting the activity of PIPKIγ661 is carried out by detecting and measuring the binding of PIPKIγ661 to talin. The detection and measurement of this binding interaction will be dependent on the type of screening assay performed and the labels used. Such screening assays to detect binding between two proteins in the presence of a test agent are well-known in the art. […] An exemplary binding assay of this type was conducted using PIPKIγ661 peptides of the sequence Cys-Asp-Glu-Arg-Scr-[…](peptide designated PN; SEQ ID NO:12) which are encompassed within the C-terminal 25 amino acid residues of PIPKIγ661 and interact with talin at the same site as integrin. […] Fluorescent probes may be linked to the cysteine residue using conventional thiol or thiolester linkages. […] In this assay, an agent which is an inhibitor of the interaction between PIPKIγ661 and talin blocks binding of a peptide of SEQ ID NO:12 and changes the fluorescent emission anisotropy as compared to a control (e.g., binding in the absence of the inhibitor).
(§1) Purified GST-talin head proteins were incubated with PIPKIγ661 tails or β1-integrin tail, together with Glutathione SEPHAROSE™ 4 Fast Flow (Amersham Biosciences, Piscataway, N.J.), in Buffer B (PBS, 0.2% NP-40, 2 mM DTT) at 4° C. for 4 hours. The beads were washed three times with Buffer B and analyzed by western blot. For competition assays, GST-talin head proteins were incubated with peptides or competing proteins for 2 hours, then the binding proteins were added and the mixtures were incubated for another 4 hours.

GST-talin Arg^358->Gln = GST-talin Arg^358->Gln (Homo sapiens, UniProt Q9Y490, R358Q); settings: peptide competing His-PIPKIγ661 binding
Sequence of GST-talin Arg^358->Gln (Q9Y490 1-435 R358Q): as the sequence (Q9Y490 1-435) above, with R358Q counted along it
Text: (§2) From structural studies of integrin binding to talin, a conserved tryptophan in β-integrin tail is positioned near two basic residues, Lys^357 and Arg^358 of talin F3 lobe (Garcia-Alvarez, et al. (2003) supra). […] The role of PIPKIγ661 phosphorylation was examined by using phosphorylated peptides to compete His-PIPKIγ661 binding to wild-type or mutant GST-talin. […] To further analyze this, β1-integrin peptides phosphorylated at Thr of Trp-Asp-Thr and at Tyr of Asn-Pro-Ile-Tyr (SEQ ID NO: 1) were synthesized and used to compete integrin tail binding from talin.
(§3) Human talin1 head region (1-435) was cloned from HEK293T cells by PCR and subcloned into pET42. The C-terminal truncated or site-directed mutagenesis for the PIPKIγ661 mutants or talin head was performed using PCR-primer overlap extension with mutagenic primers. PIPKIγ661 mutants were then subcloned into pcDNA3.1 and talin head mutants were subcloned into pET42. His-tagged mouse β1-integrin tail was made using well-established methods (Pfaff, et al. (1998) supra) and subcloned into pET28. The C-terminus of PIPKIγ635 (439-635), PIPKIγ661 (439-661), or the Tyr to Phe mutants of PIPKIγ661 were PCR amplified from the corresponding pcDNA3.1 constructs and subcloned into pET28. […] FAK, FAKTyr397Phe, kinase dead FAK and c-Src constructs were generated using well-known methods.
as §1

GST-talin Lys^357->Gln = GST-talin Lys^357->Gln (Homo sapiens, UniProt Q9Y490, K357Q); settings: peptide competing His-PIPKIγ661 binding
Sequence of GST-talin Lys^357->Gln (Q9Y490 1-435 K357Q): as the sequence (Q9Y490 1-435) above, with K357Q counted along it
Text: as §2, §3, §1

HEK293T cells = test: Co-immunoprecipitation of talin with PIPKIγ661 from suspended HEK293T cells after stimulation; assay type: cell-based; settings: stimulated
Protocol: The association between PIPKIγ661 and talin was also regulated by adhesion to type I collagen. […] However, in suspended cells, the PIPKIγ661 association with talin was restored when cells were stimulated with lysophosphatidic acid (LPA) or platelet-derived growth factor (PDGF).
Immunoprecipitation was performed using standard methods (Zhang, et al. (1997) J. Biol. Chem. 272:17756-17761). Briefly, transfected HEK293T cells were harvested and lysed in Buffer A (50 mM Tris-HCl, pH 7.5, 150 mM NaCl, 0.1-1.0% NP-40, 5.0 mM NaF, 2 mM Na3VO4, 4 mM Na2P2O7, 1 mM EDTA, 0.1 mM EGTA, 1 mM phenylmethyl sulphonyl fluoride (PMSF), 10% glycerol), centrifuged and incubated with protein A—Sepharose and 5 μg anti-HA, anti-c-Myc, anti-Flag, anti-PIPKIγ or anti-talin antibody as indicated at 4° C. for 4 hours to overnight. The immunocomplexes were washed with Buffer A, separated by SDS-polyacrylamide gel electrophoresis (SDS-PAGE), and analyzed as indicated. For the kinase assay, the immunocomplexes were washed and stored in kinase buffer.
Transfected HEK 293T cells were washed with phosphate-buffer saline (PBS) and detached with 0.25% trypsin at 37° C. The cells were harvested and washed with PBS, and suspended in serum-free DMEM at 37° C. for 1 hour. […]

With `CC(C)(C)n1nc(-c2ccc(Cl)cc2)c2c(N)ncnc21` [PP2] the “FAK-induced tyrosine phosphorylation of PIPKIγ661” value (Src family kinases; FAK-induced) was “dramatically inhibited” and the “basal tyrosine phosphorylation of PIPKIγ661” value (Src family kinases; basal) was “dramatically inhibited”.

For “Cys-As-Glu-Arg-Ser-Trp-Val-*Tyr-Ser-Pro-Leu-His-Tyr-Ser-Ala-Arg [pY644]”, the “binding affinity for talin compared with unphosphorylated peptide PN” value (GST-talin head) was “higher binding affinity”, the “affinity of binding to talin mutant Arg^358->Gln” value (GST-talin Arg^358->Gln) was “loss of affinity” and the “affinity of binding to talin mutant Lys^357->Gln” value (GST-talin Lys^357->Gln) was “retained high affinity binding”.

In the case of “Cys-Asp-Glu-Arg-Ser-Trp-Val-*Tyr-Ser-Pro-Leu-His-*Tyr-Ser-Ala-Arg [pY644/649]”, the “binding affinity for talin compared with unphosphorylated peptide PN” value (GST-talin head) is reported as “higher binding affinity”.

With “Cys-Asp-Glu-Arg-Ser-Trp-Val-Tyr-Ser-Pro-Leu-His-*Tyr-Ser-Ala-Arg [pY649]” the “binding affinity for talin compared with unphosphorylated peptide PN” value (GST-talin head) was “higher binding affinity”, the “affinity of binding to talin mutant Arg^358->Gln” value (GST-talin Arg^358->Gln) was “loss of affinity” and the “affinity of binding to talin mutant Lys^357->Gln” value (GST-talin Lys^357->Gln) was “lower affinity”.

“Cys-Asp-Glu-Arg-Ser-Trp-Val-Tyr-Ser-Pro-leu-His-Tyr-Ser-Ala-Arg [PN]” was tested, and the “displacement of His-β1-integrin from GST-talin” value (GST-talin head; in vitro) was “poorly displaced”.

For “Cys-Met-Asn-Ala-Lys-Tp-Asp-Thr-Gly-Glu-Asn-Pro-Ile-*Tyr-Lys-Ser-Ala [β1 InpY]”, the “binding affinity to talin of phosphorylated β1-integrin peptides” value (GST-talin head) was “lower binding affinity”.

In the case of “Cys-Met-Asn-Ala-Lys-Trp-Asp-*T-Gly-Glu-Asn-Pro-Ile-Tyr-Lys-Ser-Ala [β1InpT]”, the “binding affinity to talin of phosphorylated β1-integrin peptides” value (GST-talin head) is reported as “did not increase binding affinity”.

In the case of PDGF, the “PIPKIγ661 association with talin” value (HEK293T cells) is reported as “restored”.

In the case of “lysophosphatidic acid [LPA, reference compound]”, the “PIPKIγ661 association with talin” value (HEK293T cells) is reported as “restored”.

B1: His-PIPKIγ661: recombinant His-tagged PIPKIγ661 wild-type C-terminus (439-661) (protein)
chain: MSSTVFRKSSSLKSSPSKKGRGALLAVKPLGPTAAFSASQIPSEREDVQYDLRGARSYPTLEDEGRPDLLPCTPPSFEEATTASIATTLSSTSLSIPERSPSDTSEQPRYRRRTQSSGQDGRPQEEPHAEDLQKITVQVEPVCGVGVVPKEEGAGVEVPPCGASAAASVEIDAASQASEPASQASDEEDAPSTDIYFPTDERSWVYSPLHYSARPASDGESDT
modifications: left off: small tags and cut ends
B1 was tested, and the “competition with His-β1-integrin for binding to GST-talin” value (GST-talin head; recombinant C-terminus proteins) was “competed with His-β1-integrin for binding to GST-talin in a dose-dependent manner”.
